Here are results for one compound from US20190000976A1, “Purgative Composition” (CTC BIO, INC., priority 2016, published 2019).

Data set [1] in a line: Stability of sodium picosulfate in polyethylene glycol 3350 / sorbitol solution with sodium hydrogencarbonate or sodium citrate, 3 weeks (content by HPLC). The conditions noted are these: by comprising sodium hydrogencarbonate or sodium citrate. The class given is physicochemical. On the procedure: The solution was stored at room temperature or stress condition (60° C., 75%RH) for 3 weeks. The content of sodium picosulfate was evaluated. The content of sodium picosulfate was determined by ‘Sodium picosulfate powder for oral solution’ test method of British Pharmacopoeia using high performance liquid chromatography.

Data set [2] is described as follows: Stability of sodium picosulfate in solution alone, with polyethylene glycol 4000 or with sorbitol (content by HPLC, British Pharmacopoeia). The class given is physicochemical. The procedure: The solution was stored at room temperature, in accelerated condition (40° C., 75%RH), and stress condition (60° C., 75%RH).

Each structure is given as a SMILES string.

`O=S(=O)(O)Oc1ccc(C(c2ccc(OS(=O)(=O)O)cc2)c2ccccn2)cc1` [sodium picosulfate]: in data set [1], the “Instability of sodium picosulfate caused by mixing with polyethylene glycol (in words)” value is “improved dramatically”. The “Content (%) of sodium picosulfate, After 1 week Accelerated condition” value in data set [2] (1 week, accelerated condition (40° C., 75%RH)) is 102.2%. In addition, in data set [2] (1 week, room temperature), the “Content (%) of sodium picosulfate, After 1 week Room temp.” value amounted to 102.2%. Further, the “Content (%) of sodium picosulfate, After 1 week Stress condition” value in data set [2] (1 week, stress condition (60° C., 75%RH)) is listed as 102.4%. In addition, the “Content (%) of sodium picosulfate, After 2 weeks Room temp.” value in data set [2] (2 weeks, room temperature) worked out at 102.4%. In data set [2] (2 weeks, stress condition (60° C., 75%RH)), the “Content (%) of sodium picosulfate, After 2 weeks Stress condition” value is 102.5%. Further, the “Content (%) of sodium picosulfate, Initial” value in data set [2] (Initial, 300 ml solution) was 102.4%. In addition, the “Stability of sodium picosulfate (in words)” value in data set [2] (when mixed with polyethylene glycol) was “very unstable”.
